Test results from patent publication EP0792271B1, “FURAN DERIVATIVES FOR INHIBITING PNEUMOCYSTIS CARINII PNEUMONIA, GIARDIA LAMBLIA AND CRYPTOSPORIDIUM PARVUM” (priority 1994, dated 1996).
Where two headings read alike, the source gives them in different places.

How the values were obtained:
[1] = target: topoisomerase II isolated from Giardia lamblia; assay: Topoisomerase II inhibition (Giardia lamblia enzyme); type: biochemical; conditions: 50% inhibition of topoisomerase II isolated from Giardia lamblia; read-out: IC50 Topoisomerase Activity II G.l.
[2] = target: T1, topoisomerase II isolated from Drosophila melanogaster (Drosophila melanogaster, UniProt P15348); assay: Topoisomerase II inhibition (Drosophila melanogaster enzyme); type: biochemical
T1 construct: topoisomerase II isolated from Drosophila melanogaster; from tissue
T1 sequence (P15348 1-1447): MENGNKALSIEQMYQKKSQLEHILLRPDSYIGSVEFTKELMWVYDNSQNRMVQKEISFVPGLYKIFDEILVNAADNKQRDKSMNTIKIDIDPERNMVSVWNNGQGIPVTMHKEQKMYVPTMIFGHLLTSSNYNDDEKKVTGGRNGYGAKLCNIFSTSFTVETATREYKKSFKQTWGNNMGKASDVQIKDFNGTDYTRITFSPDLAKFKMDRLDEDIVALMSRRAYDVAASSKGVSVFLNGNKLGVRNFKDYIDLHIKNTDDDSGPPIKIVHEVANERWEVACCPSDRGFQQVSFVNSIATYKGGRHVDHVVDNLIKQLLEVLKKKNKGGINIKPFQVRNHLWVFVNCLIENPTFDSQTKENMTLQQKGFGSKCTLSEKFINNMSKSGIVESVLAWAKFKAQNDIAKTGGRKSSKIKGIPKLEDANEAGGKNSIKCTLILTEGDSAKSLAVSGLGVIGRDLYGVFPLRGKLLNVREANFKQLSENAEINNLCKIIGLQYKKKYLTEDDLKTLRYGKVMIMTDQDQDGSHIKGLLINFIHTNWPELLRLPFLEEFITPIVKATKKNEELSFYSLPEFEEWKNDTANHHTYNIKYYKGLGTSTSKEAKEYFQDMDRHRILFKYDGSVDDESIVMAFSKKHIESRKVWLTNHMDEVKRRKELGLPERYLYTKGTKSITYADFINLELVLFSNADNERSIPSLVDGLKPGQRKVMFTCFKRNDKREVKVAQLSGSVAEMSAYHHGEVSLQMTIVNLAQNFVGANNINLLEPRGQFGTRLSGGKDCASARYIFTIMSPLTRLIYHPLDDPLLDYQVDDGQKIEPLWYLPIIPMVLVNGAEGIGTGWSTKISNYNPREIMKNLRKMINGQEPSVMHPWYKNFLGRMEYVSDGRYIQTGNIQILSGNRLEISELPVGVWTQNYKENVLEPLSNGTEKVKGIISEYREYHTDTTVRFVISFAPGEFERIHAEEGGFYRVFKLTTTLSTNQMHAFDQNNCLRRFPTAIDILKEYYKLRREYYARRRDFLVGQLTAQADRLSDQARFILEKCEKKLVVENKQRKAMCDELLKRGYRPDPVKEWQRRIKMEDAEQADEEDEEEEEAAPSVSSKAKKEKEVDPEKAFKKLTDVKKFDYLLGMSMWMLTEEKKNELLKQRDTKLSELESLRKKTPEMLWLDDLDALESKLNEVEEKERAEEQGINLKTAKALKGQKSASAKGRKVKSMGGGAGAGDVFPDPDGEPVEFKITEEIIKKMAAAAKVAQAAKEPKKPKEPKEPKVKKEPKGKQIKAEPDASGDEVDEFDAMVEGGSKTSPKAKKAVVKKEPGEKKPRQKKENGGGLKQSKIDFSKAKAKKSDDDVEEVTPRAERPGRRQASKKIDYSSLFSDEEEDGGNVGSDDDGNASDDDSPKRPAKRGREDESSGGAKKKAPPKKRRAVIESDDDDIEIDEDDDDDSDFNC

Giardia lamblia = assay: Inhibition of growth of Giardia lamblia in in vitro culture; type: cell-based; conditions: read-out: IC50 Giardia lamblia
Pneumocystis carinii = assay: In vivo activity against Pneumocystis carinii (lung cyst counts and toxicity); conditions: for Toxicity: toxicity scale, larger value = more severe, values greater than 2 indicate deaths of some animals
poly A poly T = assay: DNA thermal melting (increase in Tm of poly A poly T); type: binding; conditions: MES buffer pH 6.0, 0.1 M NaCl, ratio of 0.3 moles of compound to nucleic acid bases
Method: (§1) Thermal melting curves for DNA and its complexes with compounds from Examples 4, 6, and 7-9 are determined as previously described in F.A. Tanious, et al., J.Biomol. Structure & Dynamics 11:1063 (1994) and W.D. Wilson, et al., Biochemistry 32:4098 (1993), by following the adsorption change at 260 nm as a function of temperature. Tm values were determined from first derivative plots. Compounds are compared by the increase in Tm (ΔTm=Tm of complex - Tm of the free nucleic acid) they produce in MES buffer (0.01M 2-(N-morpholino) ethanesulfonic acid, 0.001 M EDTA, 0.1 M NaCl adjusted to pH 6.0) at saturating amounts of compound (a ratio of 0.3 moles of compound to nucleic acid bases) unless otherwise indicated.

[3] = tested on: oligomer d(GCGCAATTGCGC)2; assay: DNA thermal melting (increase in Tm of oligomer); type: binding; conditions: increase in thermal melting of the oligomer d(GCGCAATTGCGC)2; MES buffer pH 6.0
Method: as §1

[4] = target: topoisomerase I isolated from Pneumocystis carinii; assay: Topoisomerase I inhibition (Pneumocystis carinii enzyme); type: biochemical; conditions: 50% inhibition of topoisomerase I isolated from Pneumocystis carinii
[5] = 50% inhibition of topoisomerase II isolated from Drosophila melanogaster, read-out: IC50 Topoisomerase Activity II D.m.
[6] = 50% inhibition of growth of Giardia lamblia in in vitro culture
[7] = Pneumocystis carinii, iv, read-out: cyst/g lung (% of control)

| Compound | IC50 [1] | IC50 [2] | IC50 (Giardia lamblia; Giardia duodenalis) | ΔTm DNA (poly A poly T) | also measured |
| --- | --- | --- | --- | --- | --- |
| 2,5-bis[2-(imidazolinyl)phenyl]-3,4-bis(methoxymethyl)furan [Compound 18] | 0.8 to 1 µM |  |  |  | IC50 [2, 5]: 12.5 µM; IC50 (Giardia lamblia; [6]): 4.42 µM |
| c1cc(-c2ccc(-c3ccc(C4=NCCN4)cc3)o2)ccc1C1=NCCN1 [Compound 2, 2,5-bis[4-(2-imidazolinyl)phenyl]furan] |  | 8 µM | 0.8 µM |  | response vs control in vivo at 23.3 µM (Pneumocystis carinii; [7]): 35.4%; Toxicity (Pneumocystis carinii; dosage 23.3 µM/kg/day intravenous): +2 |
| c1cc(-c2ccc(-c3ccc(C4=NCCCCN4)cc3)o2)ccc1C1=NCCCCN1 [Compound 4, 2,5-bis[4-(4,5,6,7-tetrahydro-1H-1,3-diazepin-2-yl)phenyl]furan] | 1.5 µM | 25 to 50 µM | 1.1 µM | > 28 °C | ΔTm Oligomer [3]: 10.7 °C; response vs control in vivo at 0.18 µM (Pneumocystis carinii; [7]): 115%; response vs control in vivo at 2.3 µM (Pneumocystis carinii; [7]): 2.9%; Toxicity (Pneumocystis carinii; dosage 0.18 µM/kg/day intravenous): 0; Toxicity (Pneumocystis carinii; dosage 2.3 µM/kg/day intravenous): +3 |
| c1cc(-c2ccc(-c3ccc(C4=NC5CCCCC5N4)cc3)o2)ccc1C1=NC2CCCCC2N1 (stereo not shown) [Compound 5, 2,5-bis[4-(3a,4,5,6,7,7a-hexahydro-1H-benzimidazol-2-yl)phenyl]furan] | 3 to 6 µM | 50 µM | 1.7 µM | 24.5 °C | ΔTm Oligomer [3]: 5.6 °C; response vs control in vivo at 9.2 µM (Pneumocystis carinii; [7]): 80.5%; Toxicity (Pneumocystis carinii; dosage 9.2 µM/kg/day intravenous): +1 |
| OCCN1CCN=C1c1ccc(-c2ccc(-c3ccc(C4=NCCN4CCO)cc3)o2)cc1 [Compound 6, 2,5-bis{4[2-(N-2-hydroxyethyl)imidazolinyl]-phenyl}furan] | 20 µM | 200 µM | 5.3 µM | 12.2 °C | ΔTm Oligomer [3]: 1 °C; response vs control in vivo at 4.8 µM (Pneumocystis carinii; [7]): 107%; Toxicity (Pneumocystis carinii; dosage 4.8 µM/kg/day intravenous): +3 |
| CCN1CCN=C1c1ccc(-c2ccc(-c3ccc(C4=NCCN4CC)cc3)o2)cc1 [Compound 7, 2,5-bis-{4-[2-(N-ethylimidazolinyl)]phenyl}furan] | 25 µM |  |  | 11.8 °C |  |
| Cc1c(-c2ccc(C(=N)N)cc2)oc(-c2ccc(C(=N)N)cc2)c1C [Compound 8, 2,5-bis(4-amidinophenyl)-3,4-dimethyl furan] | 0.75 µM | 2.4 µM | 0.26 µM |  | IC50 [4]: < 3.12 µM; Toxicity (Pneumocystis carinii; dosage 24.7 µM/kg/day intravenous): +1 |
| Cc1ccc(Oc2cc(-c3ccc(C4=NCCN4)cc3)oc2-c2ccc(C3=NCCN3)cc2)cc1 [Compound 9, 2,5-[bis{4-(2-imidazolinyl)}phenyl]3-p-tolyloxy furan] | 2 to 4 µM | 25 µM | > 100 µM | 18.1 °C | IC50 [4]: 12.5 µM; Toxicity (Pneumocystis carinii; dosage 9.3 µM/kg/day intravenous): +2 |
| Cc1ccc(Oc2cc(-c3ccc(C4=NCCCN4)cc3)oc2-c2ccc(C3=NCCCN3)cc2)cc1 [Compound 10] | 1 to 3 µM | 50 to 100 µM | 3.3 µM | > 28 °C | Toxicity (Pneumocystis carinii; dosage 1.8 µM/kg/day intravenous): +3 |
| NCCNC(=O)c1ccc2[nH]c(-c3ccc(-c4ccc(-c5ccc(-c6nc7cc(C(=O)NCCN)ccc7[nH]6)cc5)o4)cc3)nc2c1 [Compound 11, 2,5-bis{4-[5-(N-2-aminoethylamido)benzimidazol-2-yl]phenyl}furan] | 5 µM | > 300 µM | 0.62 µM |  | Toxicity (Pneumocystis carinii; dosage 4.1 µM/kg/day intravenous): +4 |
| CN(C)NC(=O)c1ccc(-c2ccc(-c3ccc(C(=O)NN(C)C)cc3)o2)cc1 [Compound 12, 2,5-bis(4-N,N-dimethylcarboxhydrazidephenyl) furan] | 0.6 to 1.2 µM |  |  |  | IC50 [2, 5]: 30 to 60 µM; IC50 (Giardia lamblia; [6]): 0.35 µM; cyst/g lung (% of control) (Pneumocystis carinii; dosage 7.78 µM/kg/day intravenous, percentage of saline-treated controls): 20.7 % of control; Toxicity (Pneumocystis carinii; dosage 7.78 µM/kg/day intravenous): +3 |
| CN(C)CCCNC(=N)c1ccc(-c2ccc(-c3ccc(C(=N)NCCCN(C)C)cc3)o2)cc1 [Compound 14, 2,5-bis{4-[3-(dimethylaminopropyl)amidino]phenyl}furan] | 0.25 µM | > 6.2 µM | 8.98 µM | > 28 °C | Toxicity (Pneumocystis carinii; dosage 3.9 µM/kg/day intravenous): +3 |
| N=C(NC1CC1)c1ccc(-c2ccc(-c3ccc(C(=N)NC4CC4)cc3)o2)cc1 [Compound 15, 2,5-bis-[4-N-(cyclopropylamidino)phenyl]furan] | 1.25 µM |  | 0.63 µM | > 28 °C |  |
| N=C(NCCO)c1ccc(-c2ccc(-c3ccc(C(=N)NCCO)cc3)o2)cc1 [Compound 16, 2,5-bis-{4-[(N-2-hydroxyethyl)amidino]phenyl}furan] | 1.2 to 2.5 µM | 25 to 50 µM | 0.78 µM | 21.1 °C | Toxicity (Pneumocystis carinii; dosage 10.4 µM/kg/day intravenous): 0 |
| CN(C)CCNC(=N)c1ccc(-c2ccc(-c3ccc(C(=N)NCCN(C)C)cc3)o2)cc1 [Compound 17, 2,5-bis[4-N-(dimethylaminoethyl)amidino]phenyl furan] | 0.8 µM | 12.5 µM | 10.8 µM |  |  |
| N=C(NCCCN)c1ccc(-c2ccc(-c3ccc(C(=N)NCCCN)cc3)o2)cc1 [Compound 19, 2,5-bis-{4-[N-(3-aminopropyl)amidino]phenyl}furan] | 0.625 µM | 25 µM | 0.059 µM |  |  |
| Cc1cc(-c2ccc(C(=N)NC(C)C)cc2)oc1-c1ccc(C(=N)NC(C)C)cc1 [Compound 20, 2,5-bis[4-(N-isopropylamidino)phenyl]-3-methylfuran] | 1 to 2 µM | 3 µM | 4.4 µM |  | IC50 [4]: 50 to 100 µM |
| N=C(N)c1ccc(OCCCCCOc2ccc(C(=N)N)cc2)cc1 [Pentamidine, reference compound] |  |  |  |  | response vs control in vivo at 22.1 µM (Pneumocystis carinii; [7]): 3.66%; Toxicity (Pneumocystis carinii; dosage 22.1 µM/kg/day intravenous): +2 |
